Data from PubChem BioAssay AID256 (DTP/NCI, 2004).
Values joined by “and” are separate entries in the source; they are usually repeats but may differ in a detail not shown here. Equal entries are not always repeated. Toxic doses and inconclusive results are not listed. The calls were made as follows: active = survival T/C of 150% or more; inactive = T/C below 125% in these data.

System: CD2F1 mice, L1210 leukemia ip, survival T/C
Assay: NCI In Vivo Anticancer Drug Screen. Data for tumor model L1210 Leukemia (intraperitoneal) in CD2F1 (CDF1) mice
Settings: higher = longer survival
How it was run: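 Transplantable tumor in mice; compound-treated vs vehicle-treated groups. Read-out = treated/control ratio of the measured endpoint.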

[1] = endpoint: mean survival time, dose: 100.0 mg/kg/injection, schedule: Q04DX003 (ip), vehicle: saline with Tween-80
[2] = endpoint: mean survival time, dose: 200.0 mg/kg/injection, schedule: Q04DX003 (ip), vehicle: saline with Tween-80
[3] = endpoint: mean survival time, dose: 100.0 mg/kg/injection, schedule: Q01DX009 (ip), vehicle: saline with Tween-80
[4] = endpoint: mean survival time, dose: 200.0 mg/kg/injection, schedule: Q01DX009 (ip), vehicle: saline with Tween-80
[5] = endpoint: mean survival time, dose: 400.0 mg/kg/injection, schedule: Q04DX003 (ip), vehicle: saline with Tween-80
[6] = endpoint: median survival time, dose: 12.5 mg/kg/injection, schedule: Q01DX009 (ip), vehicle: Klucel (hydroxypropylcellulose) (HPC)
[7] = endpoint: median survival time, dose: 25.0 mg/kg/injection, schedule: Q01DX009 (ip), vehicle: Klucel (hydroxypropylcellulose) (HPC)
[8] = endpoint: median survival time, dose: 50.0 mg/kg/injection, schedule: Q01DX009 (ip), vehicle: Klucel (hydroxypropylcellulose) (HPC)

Measured: T/C

BrCN(CBr)c1ccc2c(c1)Cc1cc(Br)ccc1-2
inactive: endpoint: mean survival time, dose: 100.0 mg/kg/injection, schedule: Q04DX003 (ip), vehicle: saline 100 % of control | endpoint: mean survival time, dose: 200.0 mg/kg/injection, schedule: Q04DX003 (ip), vehicle: saline 101 % of control | endpoint: mean survival time, dose: 400.0 mg/kg/injection, schedule: Q04DX003 (ip), vehicle: saline 103 % of control

CC1OC(C)(C)OC1C(=O)OCc1ccccc1 (centres undefined)
inactive: endpoint: mean survival time, dose: 25.0 mg/kg/injection, schedule: Q01DX009 (ip), vehicle: Klucel (hydroxypropylcellulose) (HPC) 96 % of control | endpoint: mean survival time, dose: 50.0 mg/kg/injection, schedule: Q01DX009 (ip), vehicle: Klucel (hydroxypropylcellulose) (HPC) 93 % of control | endpoint: mean survival time, dose: 100.0 mg/kg/injection, schedule: Q01DX009 (ip), vehicle: Klucel (hydroxypropylcellulose) (HPC) 99 % of control | endpoint: mean survival time, dose: 200.0 mg/kg/injection, schedule: Q01DX009 (ip), vehicle: Klucel (hydroxypropylcellulose) (HPC) 94 % of control | endpoint: mean survival time, dose: 400.0 mg/kg/injection, schedule: Q01DX009 (ip), vehicle: Klucel (hydroxypropylcellulose) (HPC) 99 % of control

CC(O)COCCOCCO (centres undefined)
inactive: endpoint: mean survival time, dose: 100.0 mg/kg/injection, schedule: Q01DX009 (ip), vehicle: saline 100 % of control | endpoint: mean survival time, dose: 200.0 mg/kg/injection, schedule: Q01DX009 (ip), vehicle: saline 103 % of control | endpoint: mean survival time, dose: 400.0 mg/kg/injection, schedule: Q01DX009 (ip), vehicle: saline 100 % of control

CC(C)C1(NC(=O)C2C=C3c4cccc5[nH]cc(c45)CC3N(C)C2)OC2(O)C3CCCN3C(=O)C(Cc3ccccc3)N2C1=O (centres undefined)
inactive: endpoint: mean survival time, dose: 50.0 mg/kg/injection, schedule: Q04DX003 (ip), vehicle: saline with Tween-80 96 % of control | [1] 105 % of control | [2] 100 % of control

COc1ccc(/C=C2\OC(=O)C(Cc3cc(Cl)c4c(c3)OCO4)C2(O)C(C)C)cc1 (centres undefined)
inactive: endpoint: median survival time, dose: 6.13 mg/kg/injection, schedule: Q01DX005 (ip), vehicle: Klucel (hydroxypropylcellulose) (HPC) 95 % of control | endpoint: median survival time, dose: 12.25 mg/kg/injection, schedule: Q01DX005 (ip), vehicle: Klucel (hydroxypropylcellulose) (HPC) 96 % of control | endpoint: median survival time, dose: 24.5 mg/kg/injection, schedule: Q01DX005 (ip), vehicle: Klucel (hydroxypropylcellulose) (HPC) 103 % of control | endpoint: median survival time, dose: 49.0 mg/kg/injection, schedule: Q01DX005 (ip), vehicle: Klucel (hydroxypropylcellulose) (HPC) 91 % of control

CN(C)N=Nc1ccccc1C(=O)NNC(=O)CC#N
inactive: endpoint: mean survival time, dose: 18.75 mg/kg/injection, schedule: Q01DX009 (ip), vehicle: Klucel (hydroxypropylcellulose) (HPC) 88 % of control and 97 % of control | endpoint: mean survival time, dose: 37.5 mg/kg/injection, schedule: Q01DX009 (ip), vehicle: Klucel (hydroxypropylcellulose) (HPC) 92 % of control and 100 % of control | endpoint: mean survival time, dose: 75.0 mg/kg/injection, schedule: Q01DX009 (ip), vehicle: Klucel (hydroxypropylcellulose) (HPC) 93 % of control and 111 % of control | endpoint: mean survival time, dose: 150.0 mg/kg/injection, schedule: Q01DX009 (ip), vehicle: Klucel (hydroxypropylcellulose) (HPC) 113 % of control and 102 % of control | endpoint: mean survival time, dose: 300.0 mg/kg/injection, schedule: Q01DX009 (ip), vehicle: Klucel (hydroxypropylcellulose) (HPC) 120 % of control and 111 % of control

CCOC(=O)C(=O)CC1=CC=CC2=NC(=O)CCN12
inactive: endpoint: mean survival time, dose: 100.0 mg/kg/injection, schedule: Q01DX001 (ip), vehicle: saline with Tween-80 93 % of control | endpoint: mean survival time, dose: 200.0 mg/kg/injection, schedule: Q01DX001 (ip), vehicle: saline with Tween-80 93 % of control | endpoint: mean survival time, dose: 400.0 mg/kg/injection, schedule: Q01DX001 (ip), vehicle: saline with Tween-80 102 % of control

C=CCOc1ccccc1C(C)=O
inactive: [3] 104 % of control | [4] 107 % of control | endpoint: mean survival time, dose: 400.0 mg/kg/injection, schedule: Q01DX009 (ip), vehicle: saline with Tween-80 107 % of control

CC(C)(C)N1OC1c1ccccc1 (centres undefined)
inactive: endpoint: mean survival time, dose: 100.0 mg/kg/injection, schedule: Q01DX001 (ip), vehicle: saline 103 % of control | endpoint: mean survival time, dose: 200.0 mg/kg/injection, schedule: Q01DX001 (ip), vehicle: saline 105 % of control | endpoint: mean survival time, dose: 400.0 mg/kg/injection, schedule: Q01DX001 (ip), vehicle: saline 97 % of control

ClCc1ccc2ccccc2n1
inactive: [3] 109 % of control | [1] 104 % of control | [4] 104 % of control | [2] 104 % of control | [5] 101 % of control

O=C1c2ccccc2S(=O)(=O)N1CC(O)COc1ccc(Cl)cc1 (centres undefined)
inactive: [1] 101 % of control | [2] 101 % of control | [5] 93 % of control

CCN(CC)C(=S)S[Se](SC(=S)N(CC)CC)(SC(=S)N(CC)CC)SC(=S)N(CC)CC
inactive: endpoint: median survival time, dose: 3.12 mg/kg/injection, schedule: Q01DX009 (ip), vehicle: Klucel (hydroxypropylcellulose) (HPC) 103 % of control | endpoint: median survival time, dose: 6.25 mg/kg/injection, schedule: Q01DX009 (ip), vehicle: Klucel (hydroxypropylcellulose) (HPC) 101 % of control | [6] 95 % of control | [7] 93 % of control | [8] 93 % of control

N#CC(C#N)=NNc1ccc2cn[nH]c2c1
inactive: [6] 98 % of control | [7] 101 % of control | [8] 111 % of control | endpoint: median survival time, dose: 100.0 mg/kg/injection, schedule: Q01DX009 (ip), vehicle: Klucel (hydroxypropylcellulose) (HPC) 115 % of control
